The results in this text go back to ChEMBL document CHEMBL1127541, “3,4-Dihydro-3-amino-2H-1-benzopyran derivatives as 5-HT1A receptor ligands and potential anxiolytic agents. 1. Synthesis and structure--activity relationship studies” (J Med Chem, 1994).

Data set [1] has as its target D(2) dopamine receptor (Bos taurus, UniProt P20288). Put plainly: Binding affinity against D2 receptor in calf caudate nucleus.
Data set [2] has as its target D(1A) dopamine receptor (Bos taurus, UniProt Q95136). Put plainly: Binding affinity towards dopamine receptor D1 in calf striatum. Format: tissue-based.
Data set [3] deals with T1, Alpha-1A adrenergic receptor (Bos taurus, UniProt P18130).
T1 sequence (P18130 whole entry): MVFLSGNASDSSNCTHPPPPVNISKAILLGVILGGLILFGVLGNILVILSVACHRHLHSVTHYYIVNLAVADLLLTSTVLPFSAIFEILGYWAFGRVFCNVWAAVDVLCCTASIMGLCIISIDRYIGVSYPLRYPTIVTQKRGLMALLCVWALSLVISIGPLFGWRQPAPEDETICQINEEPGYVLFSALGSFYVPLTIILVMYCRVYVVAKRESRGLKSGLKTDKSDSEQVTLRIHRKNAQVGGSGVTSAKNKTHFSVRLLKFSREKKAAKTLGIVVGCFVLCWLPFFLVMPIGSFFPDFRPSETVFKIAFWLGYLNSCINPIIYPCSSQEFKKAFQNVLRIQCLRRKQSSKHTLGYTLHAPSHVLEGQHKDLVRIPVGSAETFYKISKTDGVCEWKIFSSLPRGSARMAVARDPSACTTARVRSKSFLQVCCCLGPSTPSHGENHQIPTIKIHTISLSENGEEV
Put plainly: Binding affinity against alpha-1 adrenergic receptor in calf frontal cortex. Format: tissue-based.

Data set [4] relates to Mus musculus. Put plainly: (§1) The in vivo compartmental activity was evaluated as minimum significant active dose measured by punishment test. In kind it is ADME, organism-based.
Data set [5] deals with 5-hydroxytryptamine receptor 2A (Bos taurus, UniProt Q75Z89). Put plainly: Binding affinity towards 5-hydroxytryptamine 2 receptor in calf frontal cortex. In kind it is tissue-based.
Chain of 5-hydroxytryptamine receptor 2A (Q75Z89 whole entry): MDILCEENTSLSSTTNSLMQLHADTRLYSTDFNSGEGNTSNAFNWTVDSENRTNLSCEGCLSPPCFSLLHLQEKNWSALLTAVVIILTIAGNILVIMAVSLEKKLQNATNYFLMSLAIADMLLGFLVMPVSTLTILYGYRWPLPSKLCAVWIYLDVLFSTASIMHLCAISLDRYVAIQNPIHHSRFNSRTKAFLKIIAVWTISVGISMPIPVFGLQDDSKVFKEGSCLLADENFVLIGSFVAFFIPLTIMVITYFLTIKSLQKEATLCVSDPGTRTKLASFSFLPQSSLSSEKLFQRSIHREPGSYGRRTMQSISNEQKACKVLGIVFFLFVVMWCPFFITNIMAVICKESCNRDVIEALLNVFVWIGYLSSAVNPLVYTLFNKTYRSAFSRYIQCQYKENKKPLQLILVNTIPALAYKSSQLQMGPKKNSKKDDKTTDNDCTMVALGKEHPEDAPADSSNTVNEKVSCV
Data set [6] in a line: Inhibitory concentration of compound was tested as agonist activity against forskolin activated adenylate cyclase. Format: functional.
The target of data set [7] is T2, Alpha-2A adrenergic receptor (Bos taurus, UniProt Q28838).
T2 sequence (Q28838 whole entry): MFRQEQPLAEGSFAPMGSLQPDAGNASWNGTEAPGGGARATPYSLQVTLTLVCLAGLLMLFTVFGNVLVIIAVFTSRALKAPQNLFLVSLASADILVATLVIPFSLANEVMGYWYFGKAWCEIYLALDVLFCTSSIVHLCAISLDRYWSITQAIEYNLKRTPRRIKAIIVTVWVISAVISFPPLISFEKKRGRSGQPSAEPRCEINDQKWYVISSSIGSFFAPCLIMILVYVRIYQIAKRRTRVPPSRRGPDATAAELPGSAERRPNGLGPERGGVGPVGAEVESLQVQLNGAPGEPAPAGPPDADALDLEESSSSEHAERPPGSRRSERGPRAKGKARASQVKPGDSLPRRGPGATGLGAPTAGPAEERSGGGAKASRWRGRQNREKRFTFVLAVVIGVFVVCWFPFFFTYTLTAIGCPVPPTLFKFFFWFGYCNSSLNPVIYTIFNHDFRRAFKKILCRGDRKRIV
Put plainly: Binding affinity against alpha-2 adrenergic receptor in calf frontal cortex. In kind it is tissue-based.

Data set [8] can be described thus: Inhibitory concentration of compound was tested as agonist activity against DRN serotonergic neurons firing in the dorsal raphe nucleus. In kind it is functional, tissue-based, Rattus norvegicus.
The test system of data set [9] is Mus musculus. Described as §1. In kind it is functional.
The subject of data set [10] is Mus musculus. Put plainly: The in vivo compartmental activity was evaluated as minimum significant active dose measured by Dark/light box test. Format: functional.
Data set [11] relates to Mus musculus. Put plainly: The in vivo compartmental activity was evaluated as minimum significant active dose measured by Drug discrimination test. Format: functional.
For data set [12], the species on record is Mus musculus. Put plainly: Inhibitory concentration of compound was tested as agonist activity against DRN firing in the dorsal raphe nucleus. In kind it is functional, organism-based.
The test system of data set [13] is Mus musculus. Put plainly: The in vivo compartmental activity was evaluated as minimum significant active dose measured by Forepaw treading test. In kind it is functional.
The target in data set [14] is T3, 5-hydroxytryptamine receptor 1A (Rattus norvegicus, UniProt P19327).
T3 sequence (P19327 whole entry): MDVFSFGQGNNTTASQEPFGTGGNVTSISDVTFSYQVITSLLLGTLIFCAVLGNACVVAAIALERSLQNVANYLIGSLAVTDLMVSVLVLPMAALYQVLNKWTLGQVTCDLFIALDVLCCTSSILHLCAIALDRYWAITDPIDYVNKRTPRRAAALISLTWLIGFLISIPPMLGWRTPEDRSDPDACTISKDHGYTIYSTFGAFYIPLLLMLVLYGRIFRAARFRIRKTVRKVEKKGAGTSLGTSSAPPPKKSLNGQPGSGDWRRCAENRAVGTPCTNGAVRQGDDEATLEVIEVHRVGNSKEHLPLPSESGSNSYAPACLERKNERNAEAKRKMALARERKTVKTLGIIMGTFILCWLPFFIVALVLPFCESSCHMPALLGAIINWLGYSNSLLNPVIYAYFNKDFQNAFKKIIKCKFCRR
Put plainly: Binding affinity against 5-hydroxytryptamine 1A (5-HT1A) receptor in rat hippocampus membranes. Format: cell membranes, Membrane.

Data set [15] concerns Mus musculus. Put plainly: The in vivo compartmental activity was evaluated as minimum significant active dose measured by lower lip retraction test. Format: functional.
Data set [16] has as its target 5-hydroxytryptamine receptor 1B (Rattus norvegicus, UniProt P28564). Put plainly: Binding affinity for 5-hydroxytryptamine 1B receptor in rat cortex, striatum and globus pallidus. Format: tissue-based.

Bounds are passed on as bounds.

Chain of D(1A) dopamine receptor (Q95136 whole entry): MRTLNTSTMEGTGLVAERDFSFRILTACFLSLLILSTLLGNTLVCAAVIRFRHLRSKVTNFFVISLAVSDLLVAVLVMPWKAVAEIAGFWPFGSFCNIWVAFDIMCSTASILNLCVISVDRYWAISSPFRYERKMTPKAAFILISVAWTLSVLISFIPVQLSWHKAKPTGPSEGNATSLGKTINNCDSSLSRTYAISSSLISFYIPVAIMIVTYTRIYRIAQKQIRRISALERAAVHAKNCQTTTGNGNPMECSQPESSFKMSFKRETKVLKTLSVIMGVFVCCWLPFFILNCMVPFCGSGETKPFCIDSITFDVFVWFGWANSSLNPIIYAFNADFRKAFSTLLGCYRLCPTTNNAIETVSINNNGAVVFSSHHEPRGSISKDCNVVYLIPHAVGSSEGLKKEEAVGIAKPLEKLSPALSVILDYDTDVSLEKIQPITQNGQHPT
Chain of D(2) dopamine receptor (P20288 whole entry): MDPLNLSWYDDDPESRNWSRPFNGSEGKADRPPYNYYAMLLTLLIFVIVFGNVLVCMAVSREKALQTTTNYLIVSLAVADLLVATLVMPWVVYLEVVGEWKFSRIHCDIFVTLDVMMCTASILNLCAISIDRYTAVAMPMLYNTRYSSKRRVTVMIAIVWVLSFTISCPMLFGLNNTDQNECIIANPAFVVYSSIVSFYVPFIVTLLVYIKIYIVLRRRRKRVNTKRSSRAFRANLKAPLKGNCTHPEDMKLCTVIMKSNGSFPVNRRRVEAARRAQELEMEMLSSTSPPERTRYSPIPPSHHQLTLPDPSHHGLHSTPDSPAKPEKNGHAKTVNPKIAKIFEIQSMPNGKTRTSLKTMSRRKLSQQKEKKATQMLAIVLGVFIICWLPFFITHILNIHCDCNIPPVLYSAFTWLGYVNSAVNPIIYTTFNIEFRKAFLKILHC
Chain of 5-hydroxytryptamine receptor 1B (P28564 whole entry): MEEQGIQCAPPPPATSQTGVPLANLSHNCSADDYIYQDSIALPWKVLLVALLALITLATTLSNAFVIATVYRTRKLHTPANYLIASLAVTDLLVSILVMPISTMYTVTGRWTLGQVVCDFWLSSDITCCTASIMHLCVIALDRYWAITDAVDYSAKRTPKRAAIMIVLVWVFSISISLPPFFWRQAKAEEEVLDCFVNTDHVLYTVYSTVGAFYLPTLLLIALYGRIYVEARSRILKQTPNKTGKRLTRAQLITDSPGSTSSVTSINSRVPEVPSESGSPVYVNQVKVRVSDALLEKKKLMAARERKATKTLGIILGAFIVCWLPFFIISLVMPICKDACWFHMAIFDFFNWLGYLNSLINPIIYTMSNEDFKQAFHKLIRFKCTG

What is called IC50 is the concentration that gives 50% inhibition. Lower therefore signals higher potency. As for `CCCN(CCC)C1CCc2cccc(O)c2C1` (stereo unspecified) [8-OH-DPAT], the half-maximal inhibitory concentration (IC50) in data set [1] is 0.8 µM; in data set [2], over 1000 µM; in data set [3], 30 µM; in data set [5] it was 49 µM; in data set [6], about 0.008 µM; in data set [7], 1 µM. The 50% inhibitory concentration (IC50) in data set [8] is about 0.005 µM. For the same molecule, in data set [4], the Punishment test msad turned out to be 0.1 mg/kg.

Take `CCCN(CCCCN1C(=O)CC2(CCCC2)CC1=O)C1COc2cccc(OC)c2C1.O=C(O)C(=O)O` (single isomer, unassigned; (-)): the 50% inhibitory concentration (IC50) in [1] is 0.01 µM; in data set [2], 20 µM; in data set [12], about 0.13 µM; in data set [3] it was 20 µM; in [14], 0.002 µM; in data set [5] it was 5 µM. The concentration for half-maximal inhibition (IC50) in [6] is 0.248 µM; in data set [7], 0.02 µM; in data set [16], 6 µM. In addition, in [9], the Punishment test msad was determined as 1 mg/kg. The molecule further displayed a DLBT in data set [10] of over 2 mg/kg. In addition, the DDT msad in data set [11] came out at 3 mg/kg. Also, the FPT msad in data set [13] is 32 mg/kg. In [15], this molecule came in with an LLR msad of 8 mg/kg.

`CCCN(CCCCN1C(=O)CC2(CCCC2)CC1=O)C1COc2cccc(OC)c2C1.O=C(O)C(=O)O` (single isomer, unassigned; (+)): the concentration for half-maximal inhibition (IC50) is 3 µM in data set [1]; 40 µM in data set [2]; about 0.006 µM in [12]; 40 µM in data set [3]; 0.0003 µM in data set [14]; 3 µM in data set [5]. Moreover, the IC50 was 0.0102 µM in data set [6], 0.02 µM in data set [7] and 10 µM in data set [16]. For the same molecule, the Punishment test msad in data set [9] amounted to 0.03 mg/kg. In [10], this molecule showed a DLBT of 1 mg/kg. Also, the DDT msad in data set [11] was 0.1 mg/kg. Besides, in data set [13], the FPT msad came out at 8 mg/kg. This molecule had an LLR msad in data set [15] of 4 mg/kg.
